Among the data in a melting point compilation (Tetko et al.; mined from patent text by program, amines drawn as free bases though some values may be those of a salt) are melting point values, retold here.

`CCOC(=O)CN1CC(=O)N(C)c2ccc(NC(=O)NCc3ccccc3)cc2C1=O` came in with a melting point of 151 °C.

With `O=C(O)c1ccc(-c2cc3ccccc3o2)cc1`, the melting point lay in the range of 292 to 294 °C.

Compound `O=C(O)C(Cc1ccccc1)Oc1c(Br)cc(-c2c(Br)ccc3sc4ccccc4c23)cc1Br` (centres undefined) displayed a melting point of 98 to 100 °C.

On to `COc1cc(OC)nc(OC(C(=O)O)C(C)(c2ccccc2)c2ccccc2)n1` (centres undefined), for which the melting point lay within 229 to 234 °C.

`O=C(Nc1nccs1)C(CC1CCCC1)c1ccc(S(=O)(=O)C(F)(F)F)cc1` (centres undefined): the melting point was 48 to 52 °C.

For `COc1cc2c(Nc3ccc(Cl)cc3F)ncnc2cc1OCCN1CCNC1=O`, the melting point was more than 250 °C.

`C=CCC(O)(CC=C)c1nc(-c2ccncc2)c(-c2ccc(Cl)cc2)n1CC`: the melting point lay within 159 to 160 °C.

`CCCCCCOC(=O)C(CSC(=O)C(C)c1ccc(CC(C)C)cc1)NC(C)=O` (centres undefined) returned a melting point of 40 to 45 °C.

`CCCOc1cccc(CCCOc2ccc3c(c2)C=C(C(=O)O)CCS3(=O)=O)c1` yielded a melting point of 128 to 131 °C.

The compound `O=C(O)Cc1ccc(CCNC(=O)C2Cc3ccccc3N2S(=O)(=O)c2ccc(-c3cccc(C(F)(F)F)c3)cc2)cc1` (centres undefined) had a melting point of 110 °C.

In turn, `CC(=O)OC1CCC2(C)C(=CCC3C2CCC2(C)C(C(C)=O)CCC32F)C1` (centres undefined) had a melting point of 128 °C.

In turn, `CCCc1c(C(=O)NCc2ccc3c(Br)c(OCc4nnn[nH]4)ccc3c2)cnn1-c1ccccc1` returned a melting point of 219 to 220 °C.

Consider `COc1ccccc1NC(=O)N1CCC(=O)C(C(c2ccccc2)c2ccccc2)C1` (centres undefined), for which the melting point is 150 to 151 °C.

`Cc1ccc(C(=O)NC(NC(=NC#N)Nc2ccc(Cl)nc2)C(C)(C)C)cc1` (centres undefined): the melting point lay in the range of 194 to 196 °C.

`Nc1nc2ccccc2c2c1nc(O)n2CC1CCOCC1` returned a melting point of more than 250 °C.

Take `COc1ccc(/C=C(\C)[N+](=O)[O-])cc1OCc1ccccc1`: the melting point was in the range of 102 to 104 °C.

As for `COCC(=O)Nc1ccc(-c2ccncc2)cc1`, the melting point was 177 to 178 °C.

`Clc1cnn(-c2ccc(CBr)c(Cl)c2)c1` registered a melting point of 77 to 78 °C.

With `COc1ccc(CC(C)NC(=O)N(C)O)cc1OC` (centres undefined), the melting point lay in the range of 78 to 80 °C.

For `Cc1cc(N(C)Cc2ccc(-c3ccc(Cl)cc3)nc2)ccc1OCC(=O)O`, the melting point lay within 174 to 176 °C.

As to `Cc1cc(C)c2c(c1O)CCC2=O`, the melting point lay within 152 to 154 °C.

The compound `O=C(c1ccccc1)N1Cc2[nH]c3ccccc3c(=O)c2C1` registered a melting point of 275 °C.

`CCCCCCCCCCCC#Cc1ccccc1C=CP(=O)(O)O` came in with a melting point of 82 to 83 °C.

For the compound `CCOC(=O)C(C(=O)OCC)C(=O)c1ccc(C(F)(F)F)cc1[N+](=O)[O-]`, the melting point lay within 59 to 60 °C.

Turning to `COc1ccc(Nc2ccc3c(c2)OCC(=O)N3)cc1`, the melting point was 174 to 175 °C.

Compound `CC1(C)CCOC1=C(n1ccnc1)S(=O)(=O)c1ccc(Cl)cc1` returned a melting point of 192 to 194 °C.

`CCCCCCOCCOc1ccc(-c2ccc3c(c2)C=C(C(=O)Nc2ccc(CN(C)C4CCOCC4)cc2)CCS3(=O)=O)cc1` came in with a melting point of 180 to 182 °C.

Take `Cc1nnc(N(Cc2ccccc2)C(=O)Cc2ccccc2)s1`: the melting point stood at 128 °C.

Turning to `CC(=O)C1=CCC2C3CCC4CC(O)C(Cl)CC4(C)C3CCC12C` (centres undefined), the melting point fell in the range of 246 to 252 °C.

`CSc1nc(-c2ccncc2)nc(=O)n1C` showed a melting point of 216 to 218 °C.

In turn, `CCCCCCCCOC(=O)CCc1cc(C(C)(C)C)c2oc(-c3ccc(-c4nc5cc(CCC(=O)OCCCCCCCC)cc(C(C)(C)C)c5o4)s3)nc2c1` displayed a melting point of 68 to 70 °C.

On to `CCCNC1Cc2ccc(C3=NNC(=O)CC3)cc2C1` (centres undefined), for which the melting point fell in the range of 137 to 138 °C.

As to `CSc1ccc(Oc2ccc(Cl)c(Cl)c2)nc1C#N`, the melting point lay in the range of 156 to 158 °C.

In the case of `CN(C=O)CCC12CCCn3c1c(c1ccccc13)CCO2` (centres undefined), the melting point was 111 to 113 °C.
